Reference: ChEMBL document CHEMBL5380817, “Discovery of LL-K8-22: A Selective, Durable, and Small-Molecule Degrader of the CDK8-Cyclin C Complex” (J Med Chem, 2023)
Activity calls are given as the source filed them. No cut-off for these calls is given here.

How the values were obtained:
[1] = biological target: T1, Cyclin-dependent kinase 8 (Homo sapiens, UniProt P49336); test: Hydrophobic-tagging degradation activity at CDK8 in human MDA-MB-468 cells assessed as degradation of CDK8 incubated for 48 hrs by Western blotting analysis; type: cell-based
[2] = biological target: T2, CDK8/Cyclin C (Homo sapiens) (UniProt P49336+P24863); test: Hydrophobic-tagging degradation activity at CDK8/Cyclin C in human MDA-MB-468 cells assessed as downregulation of d EAPP expression level at 4 uM incubated for 24 hrs by proteomic analysis; type: cell-based
[3] = biological target: T2, CDK8/Cyclin C (Homo sapiens); test: Hydrophobic-tagging degradation activity at CDK8/Cyclin C in human MDA-MB-468 cells assessed as protein degradation at 3 uM incubated for 24 hrs in presence of 17-AAG by Western blotting analysis; type: cell-based
[4] = biological target: T1, Cyclin-dependent kinase 8; test: Hydrophobic-tagging degradation activity at CDK8 in human MDA-MB-468 cells assessed as downregulation of RAP2C protein expression at 5 uM incubated for 12 hrs by DIA-based proteomic analysis; type: cell-based
[5] = biological target: T2, CDK8/Cyclin C (Homo sapiens); test: Hydrophobic-tagging degradation activity at CDK8/Cyclin C in human MDA-MB-468 cells assessed as downregulation of C-terminal RNA polymerase II phosphorylation at serine 2 at 2 to 8 uM incubated for 24 hrs by Western blotting analysis; type: cell-based; conditions: dose 2-8 µM
[6] = biological target: T2, CDK8/Cyclin C (Homo sapiens); test: Hydrophobic-tagging degradation activity at CDK8/Cyclin C in human MDA-MB-468 cells assessed as downregulation of C-terminal RNA polymerase II phosphorylation at serine 5 at 2 to 8 uM incubated for 24 hrs by Western blotting analysis; type: cell-based; conditions: dose 2-8 µM
[7] = biological target: Cyclin-dependent kinase 19 (Homo sapiens) (UniProt Q9BWU1); test: Hydrophobic-tagging degradation activity at CDK19 in human MDA-MB-468 cells assessed as degradation of CDK19 protein at 5 uM incubated for 12 hrs by DIA-based proteomic analysis; type: cell-based
[8] = biological target: Cyclin-dependent kinase 1 (Homo sapiens) (UniProt P06493); test: Hydrophobic-tagging degradation activity at CDK1 in human MDA-MB-468 cells assessed as degradation of CDK1 at 10 uM incubated for 24 hrs by Western blotting analysis; type: cell-based
[9] = biological target: G1/S-specific cyclin-E1 (Homo sapiens) (UniProt P24864); test: PROTAC activity at Cyclin E1 in human MDA-MB-468 cells assessed as degradation of Cyclin E1 at 0.625 to 10 uM incubated for 24 hrs by Western blotting analysis; type: cell-based; conditions: dose 0.625-10 µM
[10] = biological target: T1, Cyclin-dependent kinase 8; test: Hydrophobic-tagging degradation activity at CDK8 in human MDA-MB-468 cells assessed as degradation of CDK8 protein at 5 uM incubated for 12 hrs by DIA-based proteomic analysis; type: cell-based
[11] = biological target: T1, Cyclin-dependent kinase 8; test: Hydrophobic-tagging degradation activity at CDK8 in human MDA-MB-468 cells assessed as downregulation of SMAD2 protein expression at 5 uM incubated for 12 hrs by DIA-based proteomic analysis; type: cell-based
MDA-MB-231 [12] = test: Antiproliferative activity against human MDA-MB-231 cells assessed as inhibition of cell proliferation incubated for 4 days by Celltiter glo luminescent assay; type: functional, cell-based; conditions: MDA-MB-231, 96 h
MDA-MB-231 [13] = test: Antiproliferative activity against human MDA-MB-231 cells assessed as reduction in cell viability incubated for 4 days by Celltiter glo luminescent assay; type: functional, cell-based; conditions: time 4.0 day
[14] = biological target: T1, Cyclin-dependent kinase 8; test: Hydrophobic-tagging degradation activity at CDK8 in human MDA-MB-468 cells assessed as downregulation of EAPP protein expression at 5 uM incubated for 12 hrs by DIA-based proteomic analysis; type: cell-based
[15] = biological target: G2/mitotic-specific cyclin-B1 (Homo sapiens) (UniProt P14635); test: PROTAC activity at Cyclin B1 in human MDA-MB-468 cells assessed as degradation of Cyclin B1 at 0.625 to 10 uM incubated for 24 hrs by Western blotting analysis; type: cell-based; conditions: dose 0.625-10 µM
[16] = biological target: T2, CDK8/Cyclin C (Homo sapiens); test: Hydrophobic-tagging degradation activity at CDK8/Cyclin C in human MDA-MB-468 cells assessed as downregulation of E2F gene expression level at 4 uM incubated for 24 hrs by qPT-PCR analysis; type: cell-based
[17] = biological target: T2, CDK8/Cyclin C (Homo sapiens); test: Hydrophobic-tagging degradation activity at CDK8/Cyclin C in human MDA-MB-468 cells assessed as downregulation of STAT1 phosphorylation at Ser727 residue at 4 uM incubated for 24 hrs by Western blotting analysis; type: cell-based
[18] = biological target: T2, CDK8/Cyclin C (Homo sapiens); test: Hydrophobic-tagging degradation activity at CDK8/Cyclin C in human MDA-MB-468 cells assessed as downregulation of Rb phosphorylation at 2 to 8 uM incubated for 24 hrs by Western blotting analysis; type: cell-based; conditions: dose 2-8 µM
[19] = biological target: T2, CDK8/Cyclin C (Homo sapiens); test: Hydrophobic-tagging degradation activity at CDK8/Cyclin C in human MDA-MB-468 cells assessed as downregulation of RET gene expression level at 4 uM incubated for 24 hrs by qPT-PCR analysis; type: cell-based
Cyclin-C = Cyclin-C (Homo sapiens, UniProt P24863); test: PROTAC activity at Cyclin C in human MDA-MB-468 cells assessed as degradation of Cyclin C incubated for 48 hrs by Western blotting analysis; type: cell-based
MDA-MB-468 = test: Antiproliferative activity against human MDA-MB-468 cells assessed as reduction in cell viability incubated for 4 days by Celltiter glo luminescent assay; type: functional, cell-based; conditions: time 4.0 day
[20] = biological target: T2, CDK8/Cyclin C (Homo sapiens); test: Hydrophobic-tagging degradation activity at CDK8/Cyclin C in human MDA-MB-468 cells assessed as effect on mRNA expression level at 1.1 to 10 uM by […] analysis; type: cell-based; conditions: dose 1.1-10 µM
[21] = biological target: T2, CDK8/Cyclin C (Homo sapiens); test: Hydrophobic-tagging degradation activity at CDK8/Cyclin C (unknown origin) assessed as protein degradation at 0.625 to 10 uM incubated for 48 hrs by Western blotting analysis; type: protein-complex assay; conditions: dose 0.625-10 µM
Cyclin-C (Homo sapiens) = Cyclin-C (Homo sapiens) (UniProt P24863); test: PROTAC activity at Cyclin C in human MDA-MB-468 cells assessed as degradation of Cyclin C at 0.625 to 10 uM incubated for 24 hrs by Western blotting analysis; type: cell-based; conditions: dose 0.625-10 µM
[22] = biological target: Cyclin-dependent kinase 12 (Homo sapiens) (UniProt Q9NYV4); test: PROTAC activity at CDK12 in human MDA-MB-468 cells assessed as degradation of CDK12 at 0.625 to 10 uM incubated for 24 hrs by Western blotting analysis; type: cell-based; conditions: dose 0.625-10 µM
[23] = biological target: T2, CDK8/Cyclin C (Homo sapiens); test: Hydrophobic-tagging degradation activity at CDK8/Cyclin C in human MDA-MB-468 cells assessed as protein degradation at 1.1 to 10 uM incubated for 48 hrs by Western blotting analysis; type: cell-based; conditions: dose 1.1-10 µM
HCT-116 = test: Antiproliferative activity against human HCT-116 cells assessed as inhibition of cell proliferation incubated for 4 days by Celltiter glo luminescent assay; type: functional, cell-based; conditions: HCT-116, 96 h
[24] = biological target: Cyclin-dependent kinase 19 (Homo sapiens) (UniProt Q9BWU1); test: Hydrophobic-tagging degradation activity at CDK19 in human MDA-MB-468 cells assessed as degradation of CDK19 at 0.625 to 10 uM incubated for 24 hrs by Western blotting analysis; type: cell-based; conditions: dose 0.625-10 µM
[25] = biological target: T2, CDK8/Cyclin C (Homo sapiens); test: Hydrophobic-tagging degradation activity at CDK8/Cyclin C in human MDA-MB-468 cells assessed as downregulation of STAT1 phosphorylation at Ser727 residue at 2 to 8 uM incubated for 24 hrs by Western blotting analysis; type: cell-based; conditions: dose 2-8 µM

T1 sequence (P49336 whole entry): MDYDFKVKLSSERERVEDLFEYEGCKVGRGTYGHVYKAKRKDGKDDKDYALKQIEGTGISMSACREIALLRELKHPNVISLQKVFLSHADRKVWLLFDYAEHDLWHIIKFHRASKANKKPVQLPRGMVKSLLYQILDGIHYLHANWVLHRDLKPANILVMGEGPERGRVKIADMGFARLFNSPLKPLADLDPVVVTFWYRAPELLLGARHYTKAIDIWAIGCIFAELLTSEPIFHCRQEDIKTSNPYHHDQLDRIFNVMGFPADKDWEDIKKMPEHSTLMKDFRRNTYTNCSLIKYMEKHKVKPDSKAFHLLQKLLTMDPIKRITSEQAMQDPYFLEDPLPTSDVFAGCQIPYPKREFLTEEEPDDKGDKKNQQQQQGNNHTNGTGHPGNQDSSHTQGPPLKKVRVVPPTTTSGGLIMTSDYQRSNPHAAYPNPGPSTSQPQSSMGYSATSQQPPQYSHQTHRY
Sequence of Cyclin-dependent kinase 19 (Homo sapiens) (Q9BWU1 whole entry): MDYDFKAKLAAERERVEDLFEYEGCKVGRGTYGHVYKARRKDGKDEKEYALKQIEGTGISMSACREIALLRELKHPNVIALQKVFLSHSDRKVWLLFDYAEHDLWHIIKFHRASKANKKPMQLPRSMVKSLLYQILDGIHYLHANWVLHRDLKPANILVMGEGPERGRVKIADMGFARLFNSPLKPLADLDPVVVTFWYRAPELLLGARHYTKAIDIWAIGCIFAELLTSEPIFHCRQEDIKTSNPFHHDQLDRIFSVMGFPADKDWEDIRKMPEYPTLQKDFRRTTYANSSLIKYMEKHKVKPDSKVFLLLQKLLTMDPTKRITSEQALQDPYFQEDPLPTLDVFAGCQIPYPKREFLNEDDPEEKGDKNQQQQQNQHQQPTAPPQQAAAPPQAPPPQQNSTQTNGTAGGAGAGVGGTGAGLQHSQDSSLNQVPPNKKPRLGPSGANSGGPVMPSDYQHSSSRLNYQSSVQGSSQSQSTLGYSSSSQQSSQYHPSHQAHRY
Sequence of G1/S-specific cyclin-E1 (Homo sapiens) (P24864 whole entry): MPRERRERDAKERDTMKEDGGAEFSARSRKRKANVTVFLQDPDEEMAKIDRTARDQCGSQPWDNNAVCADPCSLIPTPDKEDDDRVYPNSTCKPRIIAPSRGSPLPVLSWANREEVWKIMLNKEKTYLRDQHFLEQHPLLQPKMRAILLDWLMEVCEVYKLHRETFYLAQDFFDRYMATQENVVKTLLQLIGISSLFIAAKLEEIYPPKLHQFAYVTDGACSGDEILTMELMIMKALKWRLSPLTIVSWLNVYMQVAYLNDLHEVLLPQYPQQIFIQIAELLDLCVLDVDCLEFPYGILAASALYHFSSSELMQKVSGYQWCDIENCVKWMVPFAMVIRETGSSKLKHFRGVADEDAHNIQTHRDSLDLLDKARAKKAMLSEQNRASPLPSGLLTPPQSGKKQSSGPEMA
Sequence of G2/mitotic-specific cyclin-B1 (Homo sapiens) (P14635 whole entry): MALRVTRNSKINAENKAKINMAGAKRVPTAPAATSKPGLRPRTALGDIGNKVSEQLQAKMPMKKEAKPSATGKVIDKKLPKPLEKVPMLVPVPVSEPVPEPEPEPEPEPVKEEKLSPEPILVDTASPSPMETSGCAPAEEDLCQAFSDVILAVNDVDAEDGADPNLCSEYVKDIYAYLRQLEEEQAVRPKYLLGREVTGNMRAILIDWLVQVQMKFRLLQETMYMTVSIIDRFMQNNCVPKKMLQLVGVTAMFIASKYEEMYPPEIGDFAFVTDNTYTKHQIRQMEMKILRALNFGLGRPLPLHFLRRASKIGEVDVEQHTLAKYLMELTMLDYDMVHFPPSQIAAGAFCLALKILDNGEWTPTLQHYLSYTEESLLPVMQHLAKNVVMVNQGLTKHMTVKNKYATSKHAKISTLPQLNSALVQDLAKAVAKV
Sequence of Cyclin-dependent kinase 12 (Homo sapiens) (Q9NYV4 whole entry, looked up): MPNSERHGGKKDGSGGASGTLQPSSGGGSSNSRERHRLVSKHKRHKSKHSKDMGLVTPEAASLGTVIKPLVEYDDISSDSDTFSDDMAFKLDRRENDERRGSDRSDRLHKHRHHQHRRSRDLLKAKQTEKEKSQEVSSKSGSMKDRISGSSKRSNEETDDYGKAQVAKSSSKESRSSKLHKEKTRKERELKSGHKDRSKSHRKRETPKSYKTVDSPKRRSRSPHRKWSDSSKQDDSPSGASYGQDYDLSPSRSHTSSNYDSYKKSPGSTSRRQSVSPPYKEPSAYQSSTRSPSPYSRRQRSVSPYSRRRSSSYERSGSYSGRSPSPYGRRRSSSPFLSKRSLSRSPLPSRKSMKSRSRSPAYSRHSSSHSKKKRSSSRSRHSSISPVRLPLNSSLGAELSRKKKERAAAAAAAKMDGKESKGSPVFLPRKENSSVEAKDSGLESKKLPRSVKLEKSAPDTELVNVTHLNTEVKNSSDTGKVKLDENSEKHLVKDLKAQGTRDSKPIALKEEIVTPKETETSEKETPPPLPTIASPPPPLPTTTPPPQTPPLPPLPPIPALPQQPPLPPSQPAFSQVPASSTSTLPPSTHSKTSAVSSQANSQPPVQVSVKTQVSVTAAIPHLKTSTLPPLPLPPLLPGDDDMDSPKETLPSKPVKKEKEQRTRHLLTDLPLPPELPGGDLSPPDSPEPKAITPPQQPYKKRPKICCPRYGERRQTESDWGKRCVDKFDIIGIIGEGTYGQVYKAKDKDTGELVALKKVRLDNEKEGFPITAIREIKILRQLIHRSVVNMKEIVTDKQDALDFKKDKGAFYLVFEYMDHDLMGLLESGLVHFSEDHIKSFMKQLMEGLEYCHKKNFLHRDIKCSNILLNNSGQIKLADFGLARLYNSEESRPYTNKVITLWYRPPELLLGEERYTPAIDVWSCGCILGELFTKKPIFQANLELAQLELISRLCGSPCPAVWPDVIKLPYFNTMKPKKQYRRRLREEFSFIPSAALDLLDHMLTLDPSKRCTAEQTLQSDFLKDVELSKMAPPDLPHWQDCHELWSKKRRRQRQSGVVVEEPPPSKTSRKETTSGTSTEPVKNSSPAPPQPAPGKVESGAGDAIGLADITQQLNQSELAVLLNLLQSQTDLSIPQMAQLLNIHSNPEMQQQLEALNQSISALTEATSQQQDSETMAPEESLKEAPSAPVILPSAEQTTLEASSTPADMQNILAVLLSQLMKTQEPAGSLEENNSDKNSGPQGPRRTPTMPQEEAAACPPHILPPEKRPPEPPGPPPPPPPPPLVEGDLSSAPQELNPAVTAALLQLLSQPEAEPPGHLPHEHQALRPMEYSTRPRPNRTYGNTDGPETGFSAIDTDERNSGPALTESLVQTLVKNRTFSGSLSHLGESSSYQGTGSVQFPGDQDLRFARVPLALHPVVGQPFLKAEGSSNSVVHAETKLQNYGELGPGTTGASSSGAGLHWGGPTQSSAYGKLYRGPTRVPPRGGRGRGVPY
Sequence of Cyclin-dependent kinase 1 (Homo sapiens) (P06493 whole entry, looked up): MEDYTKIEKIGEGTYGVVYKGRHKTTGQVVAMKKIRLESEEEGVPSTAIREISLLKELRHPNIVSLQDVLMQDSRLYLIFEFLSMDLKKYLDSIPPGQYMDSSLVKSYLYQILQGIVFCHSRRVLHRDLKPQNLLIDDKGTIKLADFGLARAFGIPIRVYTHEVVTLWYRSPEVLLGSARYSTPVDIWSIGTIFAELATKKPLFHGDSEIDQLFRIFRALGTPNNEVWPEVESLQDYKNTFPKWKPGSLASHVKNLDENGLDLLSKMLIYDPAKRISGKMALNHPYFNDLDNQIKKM
Sequence of Cyclin-C (P24863 whole entry): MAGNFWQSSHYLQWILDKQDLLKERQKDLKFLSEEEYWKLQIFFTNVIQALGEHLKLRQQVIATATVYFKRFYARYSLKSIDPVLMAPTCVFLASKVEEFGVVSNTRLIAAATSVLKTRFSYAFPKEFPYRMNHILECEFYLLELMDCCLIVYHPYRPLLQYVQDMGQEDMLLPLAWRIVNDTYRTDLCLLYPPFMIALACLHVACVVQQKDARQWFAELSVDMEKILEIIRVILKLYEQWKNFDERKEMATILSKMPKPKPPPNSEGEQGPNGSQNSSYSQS
Sequence of Cyclin-C (Homo sapiens) (P24863 whole entry): as above

Structure (SMILES): O=C(Cn1cc(-c2ccc(-c3cncc4ccccc34)cc2)cn1)N1CCN(CCCC23CC4CC(CC(C4)C2)C3)CC1
- DC50 [1]: 2.52 µM
- Activity [2]: Active
- Activity [3]: Active
- Activity [4]: Active
- Activity [5]: Dose-Dependent Effect
- Activity [6]: Dose-Dependent Effect
- Activity [7]: inactive
- Activity [8]: Active
- Activity [9]: inactive
- Activity [10]: Active
- Activity [11]: Active
- IC50 (MDA-MB-231 [12]): 6.22 µM
- Activity (MDA-MB-231 [13]): Active
- Activity [14]: Active
- Activity [15]: inactive
- Activity [16]: Active
- Activity [17]: Active
- Activity [18]: Active
- Activity [19]: Active
- DC50 (Cyclin-C): 2.64 µM
- Activity (MDA-MB-468): Active
- Activity [20]: inactive
- Activity [21]: Active
- Activity (Cyclin-C (Homo sapiens)): Active
- Activity [22]: inactive
- Activity [23]: Active
- IC50 (HCT-116): 5.87 µM
- Activity [24]: inactive
- Activity [25]: Active
